Measurements taken from patent US20180185408A1, “ANTIFUNGAL NYLON-3 POLYMERS AND COMBINATION THERAPY USING THEM TO TREAT FUNGAL INFECTIONS” (priority 2016, published 2018).
Values after ≈ are worked out from the molar mass of the structure shown. Values joined by “and” are separate entries in the source; they are usually repeats but may differ in a detail not shown here. Equal entries are not always repeated. Where two headings read alike, the source gives them in different places.

Assays:
Cryptococcus neoformans = experiment: Checkerboard microdilution synergy (FIC); conditions: for FIC / MIC alone / MIC combo: AMB and MM:TM
C. auris = experiment: MIC100 against yeast (CLSI M27-A3); format: cell-based, Candida auris; conditions: Candidozyma auris
A. flavus = experiment: MIC100 against species of the Aspergillus genus; format: cell-based; conditions: Aspergillus flavus isolate NRRL3357
Source text: We assessed the antifungal activity of MM-TM, DM-TM, and NM against 18 different species within the genus Aspergillus.

Trichophyton rubrum = experiment: MIC100 against dermatophytes (modified CLSI M38-A); format: cell-based; conditions: ATCC28188; Trichophyton rubrum isolate ATCC 28188
Protocol: (§1) The final group of fungi tested for sensitivity to nylon-3 polymers were dermatophytes. In contrast to the other filamentous fungi tested, three of these isolates were evaluated following a modified version of the CLSI M38-A methodology (using hyphal fragments in liquid culture, because of difficulties in obtaining conidia). […] Mixed efficacy of the nylon-3 polymers was observed across the four species of dermatophytes tested. […] The activity against P. destructans, the causative agent of White Nose syndrome in bats, and just one of many emerging fungal pathogens threatening wildlife is encouraging because there are few options at present for preventing the spread of this devastating pathogen. The facility with which nylon-3 polymers can be modified could provide opportunities for the development of topical agents with high specificity for particular fungi.

Trichophyton tonsurans = experiment: MIC100 against dermatophytes (modified CLSI M38-A); format: cell-based; conditions: CBS112818; Trichophyton tonsurans isolate CBS 112818
Protocol: as §1

Microsporum canis = experiment: MIC100 against dermatophytes (modified CLSI M38-A); format: cell-based; conditions: Microsporum canis isolate UW10
Protocol: as §1

Aspergillus spp. = experiment: microbe, parasite or virus in culture
Aspergillus terreus = experiment: microbe, parasite or virus in culture
[1] = H99, […]10^5 cells/mL, 30°C, OD600 48 h, Avg.
[2] = H99, […]10^5 cells/mL, 30°C, OD600 48 h, trial 1
[3] = H99, […]10^5 cells/mL, 30°C, OD600 48 h, trial 2
[4] = MM:TM (40:60) with Amp B, isolate H99 (Amp B Sensitive), […]10^5 cells/mL, 30° C.
[5] = NM20 with Amp B, isolate H99, […] 10^5 cells/mL
[6] = Table 41, MM:TM with Amp B, isolate H99, […] 10^5 cells/mL

`C[C@@H]1[C@H](O)[C@@H](C)/C=C/C=C/C=C/C=C/C=C/C=C/C=C/[C@H](O[C@@H]2O[C@H](C)[C@@H](O)[C@H](N)[C@@H]2O)C[C@@H]2O[C@](O)(C[C@@H](O)C[C@@H](O)[C@H](O)CC[C@@H](O)C[C@@H](O)CC(=O)O[C@H]1C)C[C@H](O)[C@H]2C(=O)O` [AMB, amphotericin B] was tested, and the “decrease of the MIC of AMB in combination with MM:TM” value (Cryptococcus neoformans; H99) was over 10 fold, the “MIC Combined” value (Cryptococcus neoformans; H99, AMB and MM:TM in combination, […]10^5 cells/mL, 30°C, OD600 48 h) was 0.16 µM and the FIC (Cryptococcus neoformans; H99, Avg.) was 0.05. The MIC alone (Cryptococcus neoformans; [1]) was 3.1 µg/mL, the MIC combo (Cryptococcus neoformans; [1]) was 0.15 µg/mL and the MIC alone (Cryptococcus neoformans; [2]) was 3.1 µg/mL. It also gave an MIC combo (Cryptococcus neoformans; [2]) of 0.2 µg/mL, an MIC alone (Cryptococcus neoformans; [3]) of 3.1 µg/mL and an MIC combo (Cryptococcus neoformans; [3]) of 0.1 µg/mL. For the same compound, the “MIC alone” value (Cryptococcus neoformans; H99, single agent, […]10^5 cells/mL, 30°C, OD600 48 h) was 3.4 µM, the FIC (Cryptococcus neoformans; H99, trial 1) was 0.06 and the FIC (Cryptococcus neoformans; H99, trial 2) was 0.03. For the same compound, the “MIC AMB alone” value (Cryptococcus neoformans; H99, AMB as single agent, OD600, 48 h, 30° C.) was 3.4 µM, the “MIC AMB combination” value (Cryptococcus neoformans; H99, AMB in combination with MM:TM, OD600, 48 h, 30° C.) was 0.1 µM and 0.16 µM and 0.2 µM and the FICAMB (Cryptococcus neoformans; H99, AMB with MM:TM) was 0.03 and 0.05 and 0.06. The “FICAmp B” value (Cryptococcus neoformans; [4]) was 0.09, the “MIC Amp B alone” value (Cryptococcus neoformans; [4]) was 1.6 µg/mL and the “MIC Amp B in combination” value (Cryptococcus neoformans; [4]) was 0.15 µg/mL. The “MIC AMB alone” value (Cryptococcus neoformans; [5]) was 3.1 µg/mL, the “MIC AMB in combination” value (Cryptococcus neoformans; [5]) was 0.1 µg/mL and the “MIC Amp B alone” value (Cryptococcus neoformans; [6]) was 1.6 µg/mL. For the same compound, the “MIC Amp B in combination” value (Cryptococcus neoformans; [6]) was 0.15 µg/mL.
`OC(Cn1cncn1)(Cn1cncn1)c1ccc(F)cc1F` [FLC, fluconazole] was tested, and the MIC50 (C. auris; Candida auris B11220) was 4 µg/mL (≈ 13.1 µM) and the MIC50 (C. auris; Candida auris C54039, Resistance AmB) was 16 µg/mL (≈ 52.2 µM).
`CCC(C)n1ncn(-c2ccc(N3CCN(c4ccc(OCC5COC(Cn6cncn6)(c6ccc(Cl)cc6Cl)O5)cc4)CC3)cc2)c1=O` (stereo not shown) [Itraconazole, itraconazole] showed an MIC (A. flavus) of under 1 µg/mL, an MIC (Trichophyton rubrum) of 1 µg/mL (≈ 1.42 µM) and an MIC (Trichophyton tonsurans) of 0.13 µg/mL (≈ 0.184 µM). It also gave an MIC (Microsporum canis) of 1 µg/mL (≈ 1.42 µM), an MIC (Aspergillus spp.) of about 1 µM (≈ 0.706 µg/mL) and an MIC (Aspergillus terreus) of 1.4 µM (≈ 0.988 µg/mL). The MIC (Aspergillus terreus; 48 h) was 1 µg/mL and 1.4 µM.
